Read-outs that look alike come from different tables or passages of the source.
How the values were obtained:
GlyT2 [1] = conditions: ref 23, 27; read-out: IC50 (literature range); cited from earlier work
GlyT2 [2] = target: T1, GlyT2 (Homo sapiens, UniProt Q9Y345); experiment: preliminary Org25543 saturation experiments in absence or presence of glycine; assay type: binding; conditions: for Bmax in relation to control without glycine (100 %) / Kd in relation to control without glycine (100 %): mean ± SD, two experiments
T1 construct: host or cells: HEK293 cells stably expressing hGlyT2; crude membrane fractions
T1 sequence (Q9Y345 1-797): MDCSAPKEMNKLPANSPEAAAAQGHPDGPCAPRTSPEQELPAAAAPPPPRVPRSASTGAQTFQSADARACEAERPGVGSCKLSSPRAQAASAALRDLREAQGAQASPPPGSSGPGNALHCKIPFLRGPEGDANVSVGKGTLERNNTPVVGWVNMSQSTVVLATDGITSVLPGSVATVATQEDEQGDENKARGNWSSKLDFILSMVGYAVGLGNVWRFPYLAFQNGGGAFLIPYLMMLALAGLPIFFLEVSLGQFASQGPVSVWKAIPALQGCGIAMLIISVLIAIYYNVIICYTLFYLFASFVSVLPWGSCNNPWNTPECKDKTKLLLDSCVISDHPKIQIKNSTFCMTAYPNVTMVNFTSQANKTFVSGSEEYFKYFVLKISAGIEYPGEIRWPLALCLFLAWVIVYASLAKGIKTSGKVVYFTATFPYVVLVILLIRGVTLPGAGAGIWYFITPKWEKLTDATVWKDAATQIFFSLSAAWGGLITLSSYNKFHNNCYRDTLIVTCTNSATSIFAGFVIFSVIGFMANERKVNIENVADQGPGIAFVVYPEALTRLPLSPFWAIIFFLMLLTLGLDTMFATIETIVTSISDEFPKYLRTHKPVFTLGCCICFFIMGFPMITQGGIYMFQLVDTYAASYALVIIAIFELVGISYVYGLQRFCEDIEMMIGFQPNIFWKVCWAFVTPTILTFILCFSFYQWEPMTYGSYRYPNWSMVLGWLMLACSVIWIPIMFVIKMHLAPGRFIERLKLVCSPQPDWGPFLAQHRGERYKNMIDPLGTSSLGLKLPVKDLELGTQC
Method: glass fiber, 1.0 µm, 350 µL; Pall Corporation, Port Washington, NY, USA) were washed with water (3 x 200 µL) and methanol (3 x 200 µL) and subsequently pre-incubated for 2 h at room temperature with 0.5 % polyethylenimine (PEI). […]
KCl, 1 mM MgCl2, 1 mM CaCl2, pH 7.5) in polypropylene 96 well plates (1.2 mL well volume, Sarstedt, Nümbrecht, Germany) in total volume of 250 µL at 37 °C in a shaking water bath. After the incubation times for the filters and incubation samples had been expired, PEI was removed from the filters by vacuum filtration and 210 µL aliquots of the incubation samples were transferred on the filters and were removed by vacuum filtration as well. The filters were washed with ammonium ac etate buffer (3 x 200 µL, 154 mM, pH 7.4) and were dried at 50 °C for 1 h. After that the remaining Org25543 on the filters were washed down with acetonitrile (3 x 70 µL) containing [ 2H7]Org25543 (125 pM) and 52.5 µL ammonium bicarbonate buffer (5 mM, pH 7.8) was added to the samples to adjust the sample solvent to the mobile phase (5 mM ammonium bicarbonate buffer ( pH 7.8)/acetonitrile ( 20:80, v/v)). Finally, the samples were subjected to LC-ESI-MS/MS quantification without further sample preparation. […]
Investigating the inhibition mode of glycine in preliminary Org25543 saturation […]
In these preliminary experiments saturation experiments were performed in the same way as it is described in the Material and methods part except that Org25543 and GlyT2 were incubated either in the absence of glycine or in the presence of 2, 20 or 200 mM glycine. The saturation isotherms of a representative experiment are depicted […]
(control) in all experiments and Kd and Bmax values determined in the presence of the […]

GlyT2 [3] = tested on: GlyT2; parameters: method as in PMID 15964938; conditions: ref 27; read-out: IC50 in FLIPR membrane potential assay; cited from earlier work

COc1cc(C(=O)NCC2(N(C)C)CCCC2)cc(OC)c1OCc1ccccc1 [Org25543, N‐[[1‐(dimethylamino)cyclopentyl]methyl]‐3,5‐dimethoxy‐4‐(phenylmethoxy)benzamide]
IC50 (GlyT2 [1]): 16 to 31 nM | Bmax in relation to control without glycine (100 %) (GlyT2 [2]; 2 mM glycine): 106 ± 13% | Kd in relation to control without glycine (100 %) (GlyT2 [2]; 2 mM glycine): 129 ± 24% | Bmax in relation to control without glycine (100 %) (GlyT2 [2]; 20 mM glycine): 101 ± 12% | Kd in relation to control without glycine (100 %) (GlyT2 [2]; 20 mM glycine): 222 ± 56% | Kd in relation to control without glycine (100 %) (GlyT2 [2]; 200 mM glycine): 814 ± 154% | B max (representative preliminary saturation experiment) (GlyT2 [2]; in the presence of 2 mM glycine): 9.75 pmol (mg protein)-1 | B max (representative preliminary saturation experiment) (GlyT2 [2]; in the presence of 20 mM glycine): 9.24 pmol (mg protein)-1 | B max (representative preliminary saturation experiment) (GlyT2 [2]; in the presence of 200 mM glycine): 8.74 pmol (mg protein)-1 | B max (representative preliminary saturation experiment) (GlyT2 [2]; without glycine): 8.45 pmol (mg protein)-1 | Kd (GlyT2 [2]; without glycine, read-out: K d of Org25543 (representative preliminary saturation experiment)): 5.18 nM | IC50 (GlyT2 [3]): 31 ± 6 nM

Source: publication PMC7821181, “MS Binding Assays for Glycine Transporter 2 (GlyT2) Employing Org25543 as Reporter Ligand” (Chemmedchem, 2020)
